Laboratory results as given in the SangsterLogP compilation.

`c1ccc(C2CCNCC2)cc1` gave a logP of 2.39. For `O=C1Nc2ccccc2C1c1ccccc1` (stereo unspecified), the logP was 2.59. For `O=C1CCC(c2ccccc2)CC1`, the logP was 2.3. In the case of `O=C1NC(=O)C(c2ccccc2)C(=O)N1`, the logP is reported as -0.17. With `c1ccc(C2CCCN2)cc1` (stereo unspecified) the logP was 1.89. With `c1ccc(-c2nc[nH]n2)cc1` the logP was 1.54. `O=C1NC(=O)c2cc(-c3ccccc3)ccc21` gave a logP of 2.97. In the case of `O=c1[nH]c2ccccc2cc1-c1ccccc1`, the logP is reported as 2.99. `O=C1CCc2ccccc2N1` showed a logP of 1.34. Work on `O=c1[nH]nc(-c2ccccc2)c2ccccc12` yielded a logP of 2.48. `c1ccc(-c2nc3ccccc3[nH]2)cc1` showed a logP of 3.3. `O=C1C=CC(=O)C(c2ccccc2)=C1` gave a logP of 1.95. `O=C1CC(c2ccccc2)c2ccccc2N1` (stereo unspecified) gave a logP of 2.79. `c1ccc(-c2cnc3ccccc3n2)cc1` gave a logP of 3.48. For `c1ccc(-c2ccncc2)cc1`, the logP was 2.58. For `O=C1Nc2ccccc2CC1c1ccccc1` (stereo unspecified), the logP was 2.93. `c1ccc(-c2nccs2)cc1` showed a logP of 2.77. Compound `c1ccc(-c2nc3ccccc3o2)cc1` has a logP of 3.67. Work on `c1ccc(-c2ncc3ccccc3n2)cc1` yielded a logP of 3.42. Compound `c1ccc(-c2c[nH]nn2)cc1` has a logP of 1.91.

Remark: another data set of the same source
For `O=c1[nH]cnc2ccccc12`, the logP was 0.77.
